{
  "source": "patent US20230381193A1",
  "about": "“METHODS FOR THE TREATMENT OF CHILDHOOD-ONSET FLUENCY DISORDER” (Noema Pharma AG, priority 2021, published 2023)",
  "key": {"[1]": {"assay": "Solubility of the crystalline form", "assay_type": "physicochemical", "conditions": "for solubility: thermodynamic from solid", "description": "Solubility in simulated gastric fluid (SGF), fasted state simulated intestinal fluid (FaSSIF), and fed state simulated intestinal fluid (FeSSIF) was 0.019 mg/ml, 0.006 mg/mL, and 0.022 mg/mL, respectively. Solubility increased 50-100-fold in the presence of surfactants (e.g., Tween-80, sodium dodecyl sulfate, dioctyl sulfosuccinate, or Pluronic F68) and cyclodextrins; however it was still rather low."}, "[2]": {"assay": "Preliminary solid state stability (UPLC analysis)", "assay_type": "physicochemical", "description": "A defined amount of the crystalline form of the free base of the compound of Formula I (0.2-0.8 mg) was weighed into a 1.8 mL HPLC vial and stored open (75% RH) or closed (ambient) at the temperature and the time indicated. After incubation, compound was dissolved in 1-1.5 mL NMP to a final concentration of 0.2-0.5 mg/mL and submitted to UPLC analysis (254 nm)."}, "[3]": {"assay": "Preliminary forced degradation study (acidic, basic, oxidative, photolytic stress; excipient compatibility)", "assay_type": "physicochemical", "description": "Stability: Preliminary forced degradation study of the crystalline form of the free base of the compound of Formula I in acidic, basic, oxidative, and photolytic stress conditions was conducted to investigate the viability of the crystalline form in various stress conditions. Since the solubility of the compound of Formula I was low in the standard solvent ethanol, ethanol was replaced by N-methyl-2-pyrrolidone (NMP).\nThe crystalline form of the free base of the compound of Formula I was stable for up to 8 days in solid state at 80° C. and in solution at pH 3 to pH 7 at RT. […] The crystalline form was stable after exposure to light in solid state."}, "[4]": {"assay": "Stability in suspension vehicle and parenteral formulation", "assay_type": "physicochemical", "conditions": "0.5% HPC/1% Tween 80, up to 5 weeks at RT", "description": "For parenteral administration, a 30% Kleptose formulation (1.5 mg/ml, physiologic osmolality, pH 6.2), with a stability of at least 4 weeks at 40° C. was developed."}, "[5]": {"assay": "Thermodynamic stability of crystalline form", "assay_type": "physicochemical", "conditions": "at least between 20° C. and 60° C."}, "SD rats [6]": {"test_system": "SD rats", "assay": "Oral glucose tolerance test, second study (acute treatment)", "assay_type": "in vivo, rat", "conditions": "10 mg/kg; for Glucose tolerance (oral glucose tolerance test): glucose 2 g/kg per os 1 hour post treatment", "description": "The second study assessed the impact of acute treatment with the compound of Formula I. The study was conducted on 9-week male SD rats, which were fed with chow diet."}, "SD rats [7]": {"test_system": "SD rats", "assay": "Oral glucose tolerance test, third study (sub-chronic, 8 days, alone or in combination)", "assay_type": "in vivo, rat", "description": "The third study evaluated sub-chronic (8 days) effects of the compound of Formula I alone or in combination with Olanzapine. […] The insulin was measured at time 0 only."}, "SD rats [8]": {"test_system": "SD rats", "assay": "Oral glucose tolerance test, first study (acute treatment)", "conditions": "3 and 10 mg/kg", "procedure": "The study was conducted on 10-week male SD rats fed with chow diet. The glucose challenge was performed 1 hour post last treatment. The glucose load was done per os per gavage (2 g/kg BW), and the formulation was made in saline. The blood glucose and plasma insulin were measured at 0 (before challenge), +15, +30, +60 and +120 minutes. Blood was sampled in EDTA coated tubes, and the blood samples were kept on ice until centrifuged at 4° C. ELISA for Insulin (Mercodia, Uppsala Sweden) and Fluorometric for measuring glucose (AccuCheck System) were used for the analysis. Data Analysis was done using the software JMP for Windows (Version 5.01, SAS institute Inc., SAS Campus Drive, Cary, NC 27513). Analysis of Variance ANOVA (alpha 0.05 and 0.01) followed by Dunnett's test (comparison vs. Control)."}, "[9]": {"test_system": "adult male patients with COFD", "assay": "Study A: open-label Phase IIa 6-week study of safety and efficacy in COFD", "assay_type": "in vivo, human", "conditions": "5 to 15 mg, once daily, oral; study design criterion", "description": "Provided below is an open-label, Phase IIa, multi-center, 6-week prospective study to evaluate the safety and efficacy of the compound of Formula I at a daily dose range of 5 mg to 15 mg in adult male patients with COFD."}},
  "note": "Where two headings read alike, the source gives them in different places.",
  "data": [
    {"smiles": "Cn1ncc(C(=O)N2CCOCC2)c1C(=O)Nc1ccn2nc(-c3ccccc3)nc2c1", "note": "[1-methyl-4-(morpholine-4-carbonyl)-N-(2-phenyl[1,2,4]triazolo[1,5-a]pyridin-7-yl)-1H-pyrazole-5-carboxamide]", "values": [
      {"measurement": "solubility", "setting": "[1]; aqueous solutions, 22 °C, aqueous buffer, pH>3, read-out: Solubility in aqueous solutions", "result": "< 4", "unit": "µg/mL"},
      {"measurement": "solubility", "setting": "[1]; fasted state simulated intestinal fluid (FaSSIF), 22 °C, fassif, read-out: Solubility in fasted state simulated intestinal fluid (FaSSIF)", "result": 6, "unit": "µg/mL"},
      {"measurement": "solubility", "setting": "[1]; fed state simulated intestinal fluid (FeSSIF), 22 °C, fessif, read-out: Solubility in fed state simulated intestinal fluid (FeSSIF)", "result": 22, "unit": "µg/mL"},
      {"measurement": "Solubility increase", "setting": "[1]; in the presence of surfactants (e.g., Tween-80, sodium dodecyl sulfate, dioctyl sulfosuccinate, Pluronic F68) and cyclodextrins", "result": "50-100 fold"},
      {"measurement": "solubility", "setting": "[1]; organic solvents, organic solvent or mixture, ambient temperature (22° C.), read-out: Solubility in most of the tested organic solvents", "result": "< 50000", "unit": "µg/mL"},
      {"measurement": "solubility", "setting": "[1]; simulated gastric fluid (SGF), 22 °C, simulated gastric fluid, read-out: Solubility in simulated gastric fluid (SGF)", "result": 19, "unit": "µg/mL"},
      {"measurement": "UPLC analysis (Area % main peak)", "setting": "[2]; 4 w 60° C.", "result": 100, "unit": "Area %"},
      {"measurement": "UPLC analysis (Area % main peak)", "setting": "[2]; 4 w, 4° C.", "result": 100, "unit": "Area %"},
      {"measurement": "UPLC analysis (Area % main peak)", "setting": "[2]; 4 w, 40° C.", "result": 100, "unit": "Area %"},
      {"measurement": "UPLC analysis (Area % main peak)", "setting": "[2]; 4 w, 40° C., 75% RH", "result": 100, "unit": "Area %"},
      {"measurement": "UPLC analysis (Area % main peak)", "setting": "[2]; 4 w, RT", "result": 100, "unit": "Area %"},
      {"measurement": "Time stable in solid state", "setting": "[2]; 40-60° C.", "result": "at least 4 weeks"},
      {"measurement": "UPLC analysis (Area % main peak)", "setting": "[2]; 1 h, 80° C.", "result": 100, "unit": "Area %"},
      {"measurement": "UPLC analysis (Area % main peak)", "setting": "[2]; 1 d, 80° C.", "result": 100, "unit": "Area %"},
      {"measurement": "UPLC analysis (Area % main peak)", "setting": "[2]; 8 d, 80° C.", "result": 100, "unit": "Area %"},
      {"measurement": "Degradation products", "setting": "[2]; solid state, various temperatures", "result": "< 0.5", "unit": "%"},
      {"measurement": "Excipient compatibility (CompaS assay)", "setting": "[3]", "result": "compatible with almost all excipients"},
      {"measurement": "Stability towards oxidation", "setting": "[3]; 1 day", "result": "stable"},
      {"measurement": "Stability towards daylight", "setting": "[3]; in solution", "result": "stable"},
      {"measurement": "Stability in the Suntest", "setting": "[3]; in solution, time dependent", "result": "moderately stable to unstable"},
      {"measurement": "Stability in solution", "setting": "[3]; pH 3 to pH 7 at RT", "result": "stable"},
      {"measurement": "Stability in solution at higher or lower pH", "setting": "[3]; pH above 7 or below 3", "result": "degradation was observed"},
      {"measurement": "Stability towards oxidation", "setting": "[3]; prolonged exposure", "result": "some sensitivity"},
      {"measurement": "Stability after exposure to light", "setting": "[3]; solid state", "result": "stable"},
      {"measurement": "Stability in solid state", "setting": "[3]; up to 8 days, 80° C.", "result": "stable"},
      {"measurement": "Particle growth and hydrate formation in suspension vehicle", "setting": "[4]", "result": "only minor particle growth and no hydrate formation"},
      {"measurement": "Stability in suspension vehicle", "setting": "[4]", "result": "stable"},
      {"measurement": "Thermodynamic stability", "setting": "[5]", "result": "thermodynamically stable"}
    ]},
    {"smiles": "Cc1cc2c(s1)Nc1ccccc1N=C2N1CCN(C)CC1", "note": "[Olanzapine, 2-Methyl-4-(4-methyl-1-piperazinyl)-10H-thieno[2,3-b][1,5]benzodiazepine]", "values": [
      {"measurement": "Glucose tolerance (oral glucose tolerance test)", "setting": "SD rats [6]", "result": "glucose intolerance"},
      {"measurement": "Fasting blood glucose", "setting": "SD rats [6]; male SD rats", "result": "increase"},
      {"measurement": "Glucose tolerance (oral glucose tolerance test)", "setting": "SD rats [7]; acute treatment, 10 mg/kg, glucose 2 g/kg per os", "result": "glucose intolerance"},
      {"measurement": "Fasting blood glucose", "setting": "SD rats [7]; acute treatment, 10 mg/kg, male SD rats", "result": "increase"},
      {"measurement": "Glucose tolerance (oral glucose tolerance test)", "setting": "SD rats [8]; glucose 2 g/kg per os 1 hour post treatment", "result": "dose-dependent glucose intolerance"},
      {"measurement": "Fasting blood glucose", "setting": "SD rats [8]; male SD rats", "result": "dose-dependent increase"},
      {"measurement": "Fasting insulin", "setting": "SD rats [8]; male SD rats", "result": "dose-dependent increase"}
    ]},
    {"smiles": "Cn1ncc(C(=O)N2CCOCC2)c1C(=O)Nc1ccn2nc(-c3ccccc3)nc2c1", "note": "[compound of Formula I, 1-methyl-4-(morpholine-4-carbonyl)-N-(2-phenyl[1,2,4]triazolo[1,5-a]pyridin-7-yl)-1H-pyrazole-5-carboxamide]", "values": [
      {"measurement": "Glucose tolerance (oral glucose tolerance test)", "setting": "SD rats [6]", "result": "did not induce any change"},
      {"measurement": "Fasting blood glucose", "setting": "SD rats [7]; repeated treatment, 8 days, 0.3 mg/kg", "result": "no change"},
      {"measurement": "Glucose tolerance (oral glucose tolerance test)", "setting": "SD rats [7]; repeated treatment, 8 days, 0.3 mg/kg, alone", "result": "slight glucose tolerance improvement"},
      {"measurement": "Key secondary: Subject-rated Self Assessment of Stuttering", "setting": "[9]", "result": "Key secondary: Superior efficacy on the Subject-rated Self"},
      {"measurement": "Safety: effect on blood glucose and lipids", "setting": "[9]", "result": "No or minimal effect on blood glucose and lipids"},
      {"measurement": "Safety: patients with significant weight gain (greater than 7% versus baseline)", "setting": "[9]", "result": "Less than 5% of patients with significant weight gain (greater"},
      {"measurement": "Secondary: percent of patients with stuttering freedom", "setting": "[9]", "result": "Secondary: Superior percent of patients with stuttering"}
    ]}
  ]
}
